Key:
[1] = BAY 85-3934 plasma levels after oral administration; type: in vivo, rat
Procedure: Male Wistar rats (240–340 g in body weight) were housed with five animals per cage for at least 1 week before experimentation. Blood samples from rats were collected under anesthesia (2% isoflurane in air) by puncturing the retro-orbital vein plexus with a glass capillary. In a repeat-dose, 26-day experiment, animals were administered vehicle or BAY 85-3934 at doses of 0.5 mg/kg, 1.25 mg/kg, 2.5 mg/kg, and 5 mg/kg. PCV was determined at baseline and at weekly intervals after centrifugation in a hematocrit capillary tube (Brand) for 10 min at full speed in a Haemofuge centrifuge (Heraeus). The number of reticulocytes in 5 µl blood was counted after staining with thiazol orange (Becton Dickinson) according to the manufacturer’s instructions by FACS analysis on a BD FACSCalibur system (Becton Dickinson). The efficacy of BAY 85-3934 (2.5 mg/kg, once-daily, oral) was also compared with that of rhEPO (25 IU/kg, 50 IU/kg, and 100 IU/kg, twice-weekly, s.c. injection). The time-course of induction of EPO mRNA expression and plasma EPO was determined at baseline and 0.5 h, 1 h, 2 h, 4 h, 6 h, and 8 h after oral administration of a single dose of BAY 85-3934 (5 mg/kg).
(§1) EPO was measured in plasma samples taken from rodents using a commercial ELISA kit (R&D Systems), according to the manufacturer’s instructions. Relative plasma EPO levels were given in picograms per milliliter. In cynomolgus monkeys, EPO was measured using a combination anti-human EPO ELISAs (R&D Systems and Roche Diagnostics), with human EPO as a standard. Values were given as units per liter. For determination of plasma prorenin from rats, a commercial ELISA (Oxford Biomedical Research) was used according to the manufacturer’s instructions. Hemoglobin in rodent blood samples was determined on a Cell-Dyn 3700 apparatus (Abbott Diagnostics). BAY 85-3934 plasma concentrations were determined after protein precipitation with acetonitrile/ammonium acetate using an internal standard, followed by separation using HPLC/mass spectrometry.

PHD2 = molecular target: T1, PHD2 (Homo sapiens, UniProt Q9GZT9); test: Prolyl hydroxylase assay (Eu-VBC binding to hydroxylated HIF-1α 556–574 peptide); type: biochemical
T1 construct: made in house; host or cells: Sf9 insect cells (baculovirus, pBacPAC transfer vectors)
T1 sequence (Q9GZT9 whole entry): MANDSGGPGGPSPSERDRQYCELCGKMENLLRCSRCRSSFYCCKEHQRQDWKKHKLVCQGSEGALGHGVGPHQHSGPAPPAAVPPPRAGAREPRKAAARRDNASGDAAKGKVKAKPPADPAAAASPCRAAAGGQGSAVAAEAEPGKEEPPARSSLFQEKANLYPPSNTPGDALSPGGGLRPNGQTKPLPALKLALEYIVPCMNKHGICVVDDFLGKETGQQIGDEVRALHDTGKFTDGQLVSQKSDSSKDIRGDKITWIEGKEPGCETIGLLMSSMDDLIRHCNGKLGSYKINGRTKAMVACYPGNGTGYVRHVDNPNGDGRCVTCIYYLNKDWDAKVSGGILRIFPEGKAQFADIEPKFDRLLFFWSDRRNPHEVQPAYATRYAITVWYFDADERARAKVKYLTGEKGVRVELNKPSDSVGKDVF
Procedure: DELFIA labeling reagent (PerkinElmer) was used to label purified VBC complex with europium according to the manufacturer’s instructions.
The prolyl hydroxylase assay was performed as described previously [32] with minor modifications. […] The immobilized peptide substrate was incubated with the appropriate amount of HIF-PH in buffer containing 20 mM Tris (pH 7.5), 5 mM KCl, 1.5 mM MgCl2, 20 µM 2-oxoglutarate, 10 µM FeSO4, 2 mM ascorbate, 4% protease inhibitors without EDTA (Roche Diagnostics) in a final volume of 100 µl, with or without test compound added at appropriate concentrations. The reaction time was 60 min. To stop the reaction, plates were washed three times with wash buffer.
Hydroxylated biotinyl-HIF-1α 556–574 was incubated with Eu-VBC in 100 µl binding buffer (50 mM Tris [pH 7.5], 120 mM NaCl) for 60 min at room temperature. After washing six times with DELFIA wash buffer (PerkinElmer) and adding 100 µl enhancer solution (PerkinElmer), the amount of bound VBC was determined by measuring time-resolved fluorescence with a Tecan infinite M200 plate reader. Measurements were taken in triplicate or more, and results were expressed as means ± SEM. IC50 values were determined after curve fitting using GraphPad Prism software (GraphPad Software, La Jolla, CA, USA) applying the four-parameter logistic equation to the data sets.
To measure the activity of HIF-PH inhibitors quantitatively, a microplate assay was developed that employed the interaction of the VBC complex with the peptide HIF-1α 556–574 after being hydroxylated at proline 564 by recombinant HIF-PH. Activity of the recombinant enzyme was dependent on the concentrations of several cofactors, 2-oxoglutarate, Fe^2+, and ascorbate, in the reaction mixture.

cynomolgus monkeys = test: 5-day repeat-dose study of plasma EPO response; type: in vivo, cynomolgus monkey
Procedure: Male and female cynomolgus monkeys (2.8–5.6 kg in body weight) were used, which were housed two per cage. Blood samples from conscious cynomolgus monkeys were taken by puncturing a superficial vein. In a 5-day, repeat-dose study of plasma EPO response, BAY 85-3934 was administered at doses of 0.5 mg/kg and 1.5 mg/kg at 0 h, 24 h, 48 h, 72 h, and 96 h. Blood samples were taken at 7 h, 31 h, 55 h, 79 h, 103 h, and 168 h. Erythropoietic parameters were also evaluated after a 2-week treatment period with s.c. administration of rhEPO (100 IU/kg twice weekly at days 1, 4, 8, and 11) and BAY 85-3934 (1.5 mg/kg) once daily.
as §1
A multiple-dose study in cynomolgus monkeys was conducted to evaluate whether repeat administration of BAY 85-3934 would result in EPO accumulation and/or adaptation of the EPO response. […] In all groups, EPO concentrations had returned to baseline concentrations 24 h after administration of the study drug. […] Platelet and white blood cell counts were unchanged. With respect to EPO induction, the 0.5 mg/kg dose was determined as the minimal effective dose in this study, although statistical significance versus control animals was not reached in this small and heterogeneous animal cohort.

O=c1c(-n2ccnn2)c[nH]n1-c1cc(N2CCOCC2)ncn1 [BAY 85-3934, 2-[6-(morpholin-4-yl)pyrimidin-4-yl]-4-(1H-1,2,3-triazol-1-yl)-1,2-dihydro-3H-pyrazol-3-one]
fraction of BAY 85-3934 eliminated from the plasma ([1]; 6 h after 5 mg/kg oral): ~90% | half-life ([1]; rat, plasma, oral, 5 mg/kg, male Wistar rats): 3.4 h | bioavailability ([1]; rat, plasma, po, 5 mg/kg, male Wistar rats): ~38% | IC50 (PHD2; 20 µM 2-oxoglutarate, 10 µM Fe2+, 2 mM ascorbate): 280 nM | increase of potency on lowering 2-oxoglutarate (PHD2; 2-oxoglutarate lowered from 20 µM to 0.3 µM (Fig. 1A)): up to 10 fold | alteration of potency on varying Fe2+ and ascorbate (PHD2; Fe2+ and ascorbate varied by factors of 30 and 200 (Fig. 1B, C)): ≤ 2 fold | plasma EPO 7 h after administration (cynomolgus monkeys; 1.5 mg/kg oral, all animals): significantly induced | time after administration at which EPO had returned to baseline (cynomolgus monkeys; 0.5 and 1.5 mg/kg, all groups): 24 h | adaptation of the EPO response after repeated dosing (cynomolgus monkeys; once daily for 5 days): no adaptation | platelet and white blood cell counts (cynomolgus monkeys; once daily for 5 days): unchanged | minimal effective dose for EPO induction (cynomolgus monkeys; statistical significance versus control not reached): 0.5 mg/kg
